A word on the IC50: it is the point on the concentration scale where inhibition reaches its midpoint. A high value points to lower potency.

Structures are written as SMILES.

The experiment deals with DNA gyrase (Escherichia coli). Kind of experiment: The inhibitory activity was measured for the supercoiling activity of DNA gyrase isolated from Escherichia coli K-12 C600.
`O=C(O)c1c(=O)c2cc(F)c(N3CCC(O)C3)c3c2n2c(csc12)CO3` (stereo unspecified): the IC50 was found to be 929 nM.

`NC1CCN(c2c(F)cc3c(=O)c(C(=O)O)c4scc5n4c3c2OC5)C1` (stereo unspecified) showed an IC50 of 666 nM. In the case of `O=C(O)c1c(=O)c2cc(F)c(N3CCCC3)c3c2n2c(csc12)CO3` it was 2580 nM. To `CN1CCN(c2c(F)cc3c(=O)c(C(=O)O)c4scc5n4c3c2OC5)CC1` belongs 727 nM; to `O=C(O)c1c(=O)c2cc(F)c(N3CCNCC3)c3c2n2c(csc12)CO3`, 452 nM. In the case of `CC1COc2c(N3CCNCC3)c(F)cc3c(=O)c(C(=O)O)cn1c23` (stereo unspecified) it was 1690 nM.

Values taken from BindingDB's records for doi:10.1021/jm00079a011 (Kanebo, 1992).
